Reference: patent US20130102554A1, “COMPOSITION FOR TREATMENT OF OBESITY USING WHEAT BRAN EXTRACT OR ACTIVE INGREDIENT ISOLATED THEREFROM” (priority 2009, published 2013)

Experiments:
[1] = tested on: mouse preadipocyte 3T3-L1; experiment: Adipocyte differentiation of 3T3-L1 preadipocytes (MDI induction, Oil Red O staining, absorbance at 510 nm); type: cell-based; conditions: FIGS. 3 to 8; for differentiation of preadipocytes into adipocytes: 3T3-L1, MDI-induced, day 8, Oil Red O; for lipid accumulation of adipocytes: 3T3-L1, Oil Red O lipid contents
Description: The mouse preadipocyte 3T3-L1 was cultured at 37° C. in 10% BCS DMEM under a 5% CO2 condition.
3T3-L1 preadipocytes were seeded at a density of 5×10^4 cells/well into 24-well plates. After being grown to 100% confluency, the cells were incubated for an additional two days. Then, the preadipocytes were induced to differentiate into adipcytes in the presence of MDI (0.5 mM 3-isobutyl-1-methylxanthine (IBMX), 1 μM dexamethasone, 1 μg/ml insulin) in 10% FBS DMEM. After incubation for 48 hours in this medium, the cells were cultured for two days in 10% FBS DMEM containing 1 μg/ml insulin. Subsequently, the cells were cultured for four days in 10% FBS DMEM, with replacement of the medium with a fresh one every two days. During adipocyte differentiation, the cells were treated with predetermined concentrations of the samples. On day 8 at which differentiation was completed, observations were made of the differentiation of the cells. In this connection, the adipose differentiation was qualitatively analyzed with Oil Red 0 staining under an optical microscope and quantitatively analyzed by measuring absorbance at 510 nm.

[2] = tested on: ADD1/SREBP1c; experiment: Expression of ADD1/SREBP1c at gene level, real-time PCR in differentiated 3T3-L1 cells; type: cell-based, mouse; conditions: 3T3-L1 differentiated 8 days, GAPDH control, FIGS. 11 to 16
Description: (§1) During adipocyte differentiation, expression levels of PPARγ, C/EBRα and ADD1/SREBP1c are increased.
(§2) After being treated with predetermined concentrations of the samples (Red-dog A, Red-dog B and Compounds 1 & 2) in the same manner as in Experimental Example 1-2, the cells were induced to differentiate into adipocytes for 8 days. The expression levels of PPARγ, C/EBRα and ADD1/SREBP1c were analyzed using real-time PCR. The 3T3-L1 cells were washed twice with PBS after differentiation for 8 days and the cell pellets were used for RNA isolation using an RNA prep kit (Qiagen). cDNA was synthesized from 1 μg of the isolated RNA before real-time PCR using SYBR green (Takara) and the primers given in Table 1, below. As a control gene, GAPDH was used. In this regard, the cDNA synthesized from 1 μg of RNA was diluted 1/50 to a volume of 5 μL and mixed with 0.5 μL of each of 10 pmole primer, 10 μL of 2XSYBR green, and […] of distilled water to give a PCR mix with a total volume of 20 μL. Real-time PCR started with denaturation at 95° C. for 30 sec, followed by 40 thermal cycles of denaturation at 95° C. for 5 sec, annealing for 60° C. for 15 sec and extension at 72° C. for 10 sec. The melt curve consisted of 80 melt cycles, starting at 55° C. to 95° C. with increments of 0.5° C. per cycle. Desired fluorescent signals were detected (data analysis was done with Bio-Rad MyiQ program).

[3] = tested on: C/EBRα; experiment: Expression of C/EBRα at protein level, SDS-PAGE and immunoblot in 3T3-L1 cells; type: cell-based, mouse; conditions: 3T3-L1, compared with β-actin; FIGS. 17 and 18
Description: (§3) After the 313-L1 cells were treated with the samples (Red-dog A & Red-dog B, Compounds 1 & 2) at regular intervals of two days in the same manner as in the adipocyte differentiation method, they were washed twice with PBS and lyzed in RIPA buffer (50 mM Tris-HCl, pH 8.0, 150 mM sodium chloride, 1% NP-40, 0.5% sodium dexycholate, 0.1% sodium dodecyl sulfate, protease inhibitor). Proteins harvested by centrifugation at 13,000 rpm for 30 min were separated on 8% SDS-PAGE gel and then transferred onto a membrane. The membrane was blocked with TBST containing 5% skim milk and reacted with a primary antibody (PPARγ, C/EBPα) (Santa Cruz) and then with a secondary antibody (Santa Cruz), followed by color development with an ECL reagent (Thermo scientific) to compare the expression level of PPARγ and C/EBPα with that of β-actin.

[4] = tested on: PPARγ; experiment: Expression of PPARγ at gene level, real-time PCR in differentiated 3T3-L1 cells; type: cell-based, mouse; conditions: 3T3-L1 differentiated 8 days, GAPDH control, FIGS. 11 to 16
Description: as §1, §2

[5] = tested on: PPARγ; experiment: Expression of PPARγ at protein level, SDS-PAGE and immunoblot in 3T3-L1 cells; type: cell-based, mouse; conditions: 3T3-L1, compared with β-actin; FIGS. 17 and 18
Description: as §3

[6] = target: T1, PPARγ (Homo sapiens, UniProt P37231); experiment: PPARγ transcriptional activity, PPRE luciferase reporter in HEK 293T cells; type: cell-based; conditions: 24 hours, alone or with 10 μM troglitazone, FIGS. 9 and 10
T1 construct: expressed in transfected cells; host or cells: HEK 293T
T1 sequence (P37231 1-505): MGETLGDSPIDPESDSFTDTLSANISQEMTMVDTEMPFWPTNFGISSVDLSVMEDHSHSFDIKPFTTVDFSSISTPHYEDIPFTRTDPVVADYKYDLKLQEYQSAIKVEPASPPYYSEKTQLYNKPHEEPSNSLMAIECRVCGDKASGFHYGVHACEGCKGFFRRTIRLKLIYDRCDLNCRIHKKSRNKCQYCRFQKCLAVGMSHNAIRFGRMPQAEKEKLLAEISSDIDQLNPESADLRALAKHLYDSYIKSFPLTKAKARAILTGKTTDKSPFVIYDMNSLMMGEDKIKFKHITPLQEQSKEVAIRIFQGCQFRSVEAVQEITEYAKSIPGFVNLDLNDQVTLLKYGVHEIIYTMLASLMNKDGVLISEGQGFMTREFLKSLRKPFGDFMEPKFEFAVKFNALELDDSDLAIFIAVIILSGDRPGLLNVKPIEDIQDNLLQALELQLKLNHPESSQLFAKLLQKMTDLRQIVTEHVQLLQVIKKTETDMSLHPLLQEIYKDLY
Description: HEK 293T cells were co-transfected with a recombinant pGL3-basic luciferase expression vector (Promega) carrying a PPRE (PPARγ response element) gene and a PPARγ gene and a pRL-SV-40 plasmid (Promega) carrying a Renilla luciferase cDNA as a control reporter. One day after transfection, the cells were treated for 24 hours with predetermined concentrations of the samples (Red-dog A, Red-dog B and Compounds 1 & 2) alone or in combination with 10 μM troglitazone, a ligand to PPARγ. The inhibitory activity of the samples against the transcription factor PPARγ was determined by measuring the expression levels of luciferase.

[7] = tested on: aP2; experiment: Anti-insulin resistance assay: aP2 expression at gene level in differentiated 3T3-L1 cells; type: cell-based, mouse; conditions: cells differentiated for 8 days, FIGS. 19 to 24
Description: (§4) To examine whether the samples (Red-dog A & Red-dog B, compounds 1 & 2) are effective as anti-insulin resistance agents, expression levels of resistin, aP2 and Fas in the cells that had been differentiated for 8 days as in Experimental Example 1 were analyzed using the primers of Table 2, below.

[8] = tested on: Fas; experiment: Anti-insulin resistance assay: Fas expression at gene level in differentiated 3T3-L1 cells; type: cell-based, mouse; conditions: cells differentiated for 8 days, FIGS. 19 to 24
Description: as §4

[9] = tested on: resistin; experiment: Anti-insulin resistance assay: resistin expression at gene level in differentiated 3T3-L1 cells; type: cell-based, mouse; conditions: cells differentiated for 8 days, FIGS. 19 to 24
Description: as §4

[10] = tested on: C/EBRα; experiment: Expression of C/EBRα at gene level, real-time PCR in differentiated 3T3-L1 cells; type: cell-based, mouse; conditions: 3T3-L1 differentiated 8 days, GAPDH control, FIGS. 11 to 16
Description: as §1, §2

## COc1cc(OC2OC(CO)[C@@H](O)[C@H](O)[C@@H]2O)ccc1O (stereo partly drawn) [Compound 1, methoxy-hydroquinone-4-β-D-glucopyranoside]
[1]
  differentiation of preadipocytes into adipocytes: inhibited the differentiation of preadipocytes into adipocytes in dose-dependent manners
  lipid accumulation of adipocytes: inhibitory activities
[2]
  expression of ADD1/SREBP1c at the genetic level: inhibit the expression of PPARγ, C/EBRα and ADD1/SREBP1c in dose-dependent manners
[3]
  expression of C/EBRα at protein level: inhibited the expression of PPARγ and C/EBRα in dose-dependent manners
[4]
  expression of PPARγ at the genetic level: inhibit the expression of PPARγ, C/EBRα and ADD1/SREBP1c in dose-dependent manners
[5]
  expression of PPARγ at protein level: inhibited the expression of PPARγ and C/EBRα in dose-dependent manners
[6]
  transcriptional activity of PPARγ: inhibited the transcriptional activity of PPARγ in a dose-dependent manner
[7]
  expression of aP2 at the genetic level: inhibit the expression of resistin, aP2 and Fas in dose-dependent manners
[7]; listed as Chemical Formula 1
  expression of aP2 at the genetic level: significantly suppressed
[8]
  expression of Fas at the genetic level: inhibit the expression of resistin, aP2 and Fas in dose-dependent manners
[8]; listed as Chemical Formula 1
  expression of Fas at the genetic level: significantly suppressed
[9]
  expression of resistin at the genetic level: inhibit the expression of resistin, aP2 and Fas in dose-dependent manners
[9]; listed as Chemical Formula 1
  expression of resistin at the genetic level: significantly suppressed
[10]
  expression of C/EBRα at the genetic level: inhibit the expression of PPARγ, C/EBRα and ADD1/SREBP1c in dose-dependent manners

## CCCCCC(O)C(O)/C=C/C(O)CCCCCCCC(=O)O (stereo not shown) [Compound 2, 9,12,13-trihydroxy-10(E)-octadecenoic acid]
[1]
  differentiation of preadipocytes into adipocytes: inhibited the differentiation of preadipocytes into adipocytes in dose-dependent manners
  lipid accumulation of adipocytes: inhibitory activities
[2]
  expression of ADD1/SREBP1c at the genetic level: inhibit the expression of PPARγ, C/EBRα and ADD1/SREBP1c in dose-dependent manners
[3]
  expression of C/EBRα at protein level: inhibited the expression of PPARγ and C/EBRα in dose-dependent manners
[4]
  expression of PPARγ at the genetic level: inhibit the expression of PPARγ, C/EBRα and ADD1/SREBP1c in dose-dependent manners
[5]
  expression of PPARγ at protein level: inhibited the expression of PPARγ and C/EBRα in dose-dependent manners
[6]
  transcriptional activity of PPARγ: inhibited the transcriptional activity of PPARγ in a dose-dependent manner
[7]
  expression of aP2 at the genetic level: inhibit the expression of resistin, aP2 and Fas in dose-dependent manners
[7]; listed as Chemical Formula 2
  expression of aP2 at the genetic level: significantly suppressed
[8]
  expression of Fas at the genetic level: inhibit the expression of resistin, aP2 and Fas in dose-dependent manners
[8]; listed as Chemical Formula 2
  expression of Fas at the genetic level: significantly suppressed
[9]
  expression of resistin at the genetic level: inhibit the expression of resistin, aP2 and Fas in dose-dependent manners
[9]; listed as Chemical Formula 2
  expression of resistin at the genetic level: significantly suppressed
[10]
  expression of C/EBRα at the genetic level: inhibit the expression of PPARγ, C/EBRα and ADD1/SREBP1c in dose-dependent manners
